According to patent US9221833B2, “Antiviral compounds” (GILEAD PHARMASSET LLC, priority 2011, dated 2015):
Like-named read-outs stand apart in the source and are kept apart here.

How the values were obtained:
Assay type in all cases: cell-based, HCV
[1] = test system: Q30R in genotype 1a NS5A; test: Antiviral potency against resistance mutant, 1a Pi-Rluc replicon in Huh-7-derived cured-51 cells; conditions: genotype 1a Q30R resistance mutant, read-out: 1a Q30R
Procedure: (§1) Evaluation of cell-based anti-HCV activity: Antiviral potency (EC50) was determined using a Renilla luciferase (RLuc)-based HCV replicon reporter assay. […] To perform the assay for genotype 2a (with M31 present in NS5A) or 2b, NS5A chimeric genotype 2a JFH-1 replicons that encodes a RLuc-Neo reporter and either genotype 2a J6 strain NS5A gene or genotype 2b MD2b-1 strain NS5A gene (both with M31 present) respectively, were either transiently transfected (t) into Huh-Lunet cells or were established as stably replicating replicon cells (s) is provided. Either cells were dispensed into 384-well plates for EC50 assays. To perform the assay for genotype 3 and 4, NS5A chimeric genotype 1b Con1 replicons that encodes a Pi-RLuc reporter and either genotype 3a S52 strain NS5A gene or genotype 4a ED43 strain NS5A gene respectively, were transiently transfected (t) into Huh-Lunet cells, which were subsequently dispensed into 384-well plates. Compounds were dissolved in DMSO at a concentration of 10 mM and diluted in DMSO either manually or using an automated pipeting instrument. Serially 3-fold diluted compounds were either manually mixed with cell culture media and added to the seeded cells or directly added to the cells using an automated instrument. […] 72 hours later, cells were lysed and Renilla luciferase activity quantified as recommended by the manufacturer (Promega-Madison, Wis.). Non-linear regression was performed to calculate EC50 values.
To determine the antiviral potency (EC50) against resistance mutants, resistance mutations, including M28T, Q30R, Q30H, L31M, and Y93C in genotype 1a NS5A and Y93H in genotype 1b NS5A, were introduced individually into either 1a Pi-Rluc or 1b Pi-Rluc replicons by site directed mutagenesis. Replicon RNA of each resistant mutant was transiently transfected into Huh-7-derived cured-51 cells and antiviral potency was determined on these transfected cells as described above.

[2] = test system: genotype 2b MD2b-1 strain NS5A gene (M31 present); test: microbe, parasite or virus in culture
Procedure: as §1

[3] = test system: genotype 2a JFH-1 replicon (L31 present in NS5A); test: microbe, parasite or virus in culture; conditions: genotype 2a JFH replicon, read-out: 2a JFH
Procedure: as §1

[4] = test system: genotype 1b Con1 replicon; test: microbe, parasite or virus in culture
Procedure: as §1

[5] = test system: genotype 3a S52 strain NS5A gene; test: Replicon assay, NS5A chimeric 1b Con1 replicon with 3a NS5A, transiently transfected Huh-Lunet cells; conditions: genotype 3a, read-out: 3a
Procedure: as §1

[6] = test system: genotype 2a J6 strain NS5A gene (M31 present); test: Replicon assay, NS5A chimeric 2a JFH-1 replicon with 2a J6 NS5A, transient (t) or stable (s), Huh-Lunet cells
Procedure: as §1

[7] = test system: genotype 4a ED43 strain NS5A gene; test: Replicon assay, NS5A chimeric 1b Con1 replicon with 4a NS5A, transiently transfected Huh-Lunet cells
Procedure: as §1, with “[…],” for “were transiently transfected (t) into Huh-Lunet cells,”

[8] = genotype 2b, EC50 range class, transiently transfected cells (t), if unavailable stably replicating cells (s), read-out: 2b
[9] = stably replicating cells (s), read-out: 2b (s)
[10] = transiently transfected cells (t), read-out: 2b (t)
[11] = genotype 2a J6, EC50 range class, transiently transfected cells (t), if unavailable stably replicating cells (s), read-out: 2a J6
[12] = transiently transfected cells (t), read-out: 2a J6 (t)
[13] = genotype 4a, EC50 range class, transiently transfected cells (t), if unavailable stably replicating cells (s), read-out: 4a
[14] = stably replicating cells (s), read-out: 4a (s)
[15] = stably replicating cells (s), read-out: 2a J6 (s)
[16] = transiently transfected cells (t), read-out: 4a (t)
[17] = Hepatitis C virus, read-out: 1b (nM)

Molecule: COC[C@H]1C[C@@H](c2ncc(-c3ccc4c(c3)COc3cc5c(ccc6nc([C@@H]7C[C@H]8C[C@H]8N7C(=O)[C@H](NC(=O)OC)c7ccccc7)[nH]c65)cc3-4)[nH]2)N(C(=O)[C@@H](NC(=O)OC)C(C)C)C1 [Example MV]
- EC50 ([1]; EC50 range class): < 1 nM
- EC50 [1]: 0.012 nM
- EC50 [2, 8]: < 1 nM
- EC50 [2, 9]: 0.041 nM
- EC50 [2, 10]: 0.034 nM
- EC50 ([3]; EC50 range class): < 1 nM
- EC50 [3]: 0.004 nM
- EC50 ([4]; read-out: 1b): 0.014 nM
- EC50 ([5]; EC50 range class): < 1 nM
- EC50 [5]: 0.011 nM
- EC50 [6, 11]: < 1 nM
- EC50 [6, 12]: 0.047 nM
- EC50 [7, 13]: < 1 nM
- EC50 [7, 14]: 0.011 nM

Molecule: COC[C@H]1C[C@@H](c2nc3c([nH]2)-c2cc4c(cc2CC3)-c2ccc(-c3cnc([C@@H]5CCCN5C(=O)[C@@H](NC(=O)OC)C(C)C)[nH]3)cc2CO4)N(C(=O)[C@H](NC(=O)OC)c2ccccc2)C1 [Example MR, methyl{(1R)-2-[(2S,4S)-2-(9-{2-[(2S)-1-{(2S)-2-[(methoxycarbonyl)amino]-3-methylbutanoyl}pyrrolidin-2-yl)-1H-imidazol-5-yl]-1,11-dihydroisochromeno[4′,3′:6,7]-4,5-dihydro-naphtho[1,2-d]imidazol-2-yl}-(methoxymethyl)pyrrolidin-1-yl]-2-oxo-1-phenylethyl}carbamate]
- EC50 ([1]; EC50 range class): < 1 nM
- EC50 [1]: 0.128 nM
- EC50 [2, 8]: < 1 nM
- EC50 [2, 9]: 0.053 nM
- EC50 [2, 10]: 0.039 nM
- EC50 ([3]; EC50 range class): < 1 nM
- EC50 [3]: 0.017 nM
- EC50 ([4]; read-out: 1b): 0.041 nM
- EC50 ([5]; EC50 range class): < 1 nM
- EC50 [5]: 0.078 nM
- EC50 [6, 11]: < 1 nM
- EC50 [6, 15]: 0.176 nM
- EC50 [6, 12]: 0.079 nM
- EC50 [7, 13]: < 1 nM
- EC50 [7, 16]: 0.045 nM

Molecule: COC(=O)N[C@H](C(=O)N1CCC[C@H]1c1ncc(-c2ccc3c(c2)COc2cc4c(cc2-3)CCc2[nH]c([C@@H]3CCCN3C(=O)[C@@H](NC(=O)OC)C(C)C)nc2-4)[nH]1)C(C)C [Example ME]
- EC50 ([1]; EC50 range class): 1 to 44 nM
- EC50 [1]: 2.51 nM
- EC50 [2, 8]: < 1 nM
- EC50 [2, 9]: 0.701 nM
- EC50 [2, 10]: 0.198 nM
- EC50 ([3]; EC50 range class): < 1 nM
- EC50 [3]: 0.012 nM
- EC50 ([4]; read-out: 1b): 0.049 nM
- EC50 ([5]; EC50 range class): < 1 nM
- EC50 [5]: 0.015 nM
- EC50 [6, 11]: 1 to 4.99 nM
- EC50 [6, 15]: 16.1 nM
- EC50 [6, 12]: 3.43 nM
- EC50 [7, 13]: < 1 nM
- EC50 [7, 14]: 0.029 nM
- EC50 [7, 16]: 0.016 nM

Molecule: COC[C@H]1C[C@@H](c2nc3ccc4cc5c(cc4c3[nH]2)OCc2cc(-c3ccc4nc([C@@H]6CCCN6C(=O)[C@@H](NC(=O)OC)C(C)C)[nH]c4c3)ccc2-5)N(C(=O)[C@H](NC(=O)OC)c2ccccc2)C1 [Example MS]
- EC50 [2, 8]: > 5 nM
- EC50 [2, 9]: 9.56 nM
- EC50 ([3]; EC50 range class): < 1 nM
- EC50 [3]: 0.005 nM
- EC50 ([4]; read-out: 1b): 0.008 nM
- EC50 [6, 11]: > 5 nM
- EC50 [6, 15]: 15.6 nM
- EC50 [7, 13]: < 1 nM
- EC50 [7, 14]: 0.02 nM
- EC50 [7, 16]: 0.014 nM

Molecule: COC[C@@H]1C[C@@H](c2nc3ccc4cc5c(cc4c3[nH]2)OCc2cc(-c3cnc([C@@H]4CCCN4C(=O)[C@@H](NC(=O)OC)C(C)C)[nH]3)ccc2-5)N(C(=O)[C@H](NC(=O)OC)c2ccccc2)C1 [Example MQ, methyl{(1R)-2-[(2S,4R)-2-(9-{2-[(2S)-1-{(2S)-2-[(methoxycarbonyl)amino]-3-methylbutanoyl}pyrrolidin-2-yl)-1H-imidazol-5-yl]-1,11-dihydroisochromeno[4′,3′:6,7]naphtho[1,2-d]imidazol-2-yl}-4-(methoxymethyl)pyrrolidin-1-yl]-2-oxo-phenylethyl}carbamate]
- EC50 ([1]; EC50 range class): < 1 nM
- EC50 [1]: 0.023 nM
- EC50 [2, 8]: < 1 nM
- EC50 [2, 9]: 0.023 nM
- EC50 [2, 10]: 0.009 nM
- EC50 ([3]; EC50 range class): < 1 nM
- EC50 [3]: 0.004 nM
- EC50 ([4]; read-out: 1b): 0.011 nM
- EC50 ([5]; EC50 range class): < 1 nM
- EC50 [5]: 0.016 nM
- EC50 [6, 11]: < 1 nM
- EC50 [6, 15]: 0.095 nM
- EC50 [6, 12]: 0.017 nM
- EC50 [7, 13]: < 1 nM

Molecule: dimethyl (2S,2′S)-1,1′-((2 S,2′S)-2,2′l-pyrrolidin-2-yl)-5H-naphtho[c,g]chromeno[8,9-d]imidazol-9-yl)-1H-imidazol-2-yl)pyrrolidin-1-yl))bis(3-methyl-1-oxobutane-2,1-diyl)dicarbamate [Example MC]
- EC50 ([1]; EC50 range class): < 1 nM
- EC50 [1]: 0.99 nM
- EC50 [2, 8]: < 1 nM
- EC50 [2, 9]: 0.375 nM
- EC50 [2, 10]: 0.162 nM
- EC50 ([3]; EC50 range class): < 1 nM
- EC50 [3]: 0.004 nM
- EC50 ([4]; read-out: 1b): 0.017 nM
- EC50 ([5]; EC50 range class): < 1 nM
- EC50 [5]: 0.004 nM
- EC50 [6, 11]: 1 to 4.99 nM
- EC50 [6, 15]: 3.52 nM
- EC50 [6, 12]: 1.16 nM
- EC50 [7, 13]: < 1 nM
- EC50 [7, 14]: 0.028 nM
- EC50 [7, 16]: 0.008 nM

Molecule: COC(=O)N[C@H](C(=O)N1CCC[C@H]1c1ncc(-c2ccc3c(c2)COc2cc4c(ccc5nc([C@@H]6C[C@H](C)CN6C(=O)[C@H](NC(=O)OC)c6ccccc6)[nH]c54)cc2-3)[nH]1)C(C)C [Example MY, Methyl {2-[2-{9-[2-(1-{2-[(methoxycarbonyl)amino]-3-methylbutanoyl}pyrrolidin-2-yl)-1H-imidazol-5-yl]-1,11-dihydroisochromeno[4′,3′:6,7]naphtho[1,2-d]imidazol-2-yl}-4-(methyl)pyrrolidin-1-yl]-2-oxo-1-phenylethyl}carbamate]
- EC50 [4, 17]: 0.015 nM

Molecule: Methyl {(2S)-1-[(2S,5S)-2-(5-{2-[(2S,4S)-1-{(2S)-2-[(methoxycarbonyl)amino]-3-methylbutanoyl}-4-methylpyrrolidin-2-yl]-1,11-dihydroisochromeno[4′,3′:6,7]naphtho[1,2-d]imidazol-9-yl}-1H-imidazol-2-yl)-4-methylpyrrolidin-1-yl]-3-methyl-1-oxobutan-2-yl}carbamate [Example ND]
- EC50 ([1]; EC50 range class): < 1 nM
- EC50 [1]: 0.057 nM
- EC50 [2, 8]: < 1 nM
- EC50 [2, 9]: 1.32 nM
- EC50 [2, 10]: 0.27 nM
- EC50 ([3]; EC50 range class): < 1 nM
- EC50 [3]: 0.014 nM
- EC50 ([4]; read-out: 1b): 0.024 nM
- EC50 ([5]; EC50 range class): < 1 nM
- EC50 [5]: 0.035 nM
- EC50 [6, 11]: < 1 nM
- EC50 [6, 15]: 2.34 nM
- EC50 [6, 12]: 0.314 nM
- EC50 [7, 13]: < 1 nM
- EC50 [7, 14]: 0.044 nM
- EC50 [7, 16]: 0.031 nM

Molecule: COC[C@H]1C[C@@H](c2nc3ccc4cc5c(cc4c3[nH]2)OCc2cc(-c3cnc([C@@H]4C[C@H](C)CN4C(=O)[C@H](NC(=O)OC)c4ccccc4)[nH]3)ccc2-5)N(C(=O)[C@@H](NC(=O)OC)C(C)C)C1 [Example PF, methyl {1-[2-{9-[2-(1-{[(methoxycarbonyl)amino](phenyl)acetyl}-4-methylpyrrolidin-2-yl)-1H-imidazol-5-yl]-1,11-dihydroisochromeno[4′,3′:6,7]naphtho[1,2-d]imidazol-2-yl}-4-(methoxymethyl)pyrrolidin-1-yl]-3-methyl-1-oxobutan-2-yl}carbamate]
- EC50 [4, 17]: 0.044 nM
